Assay results taken from ChEMBL document CHEMBL1201862, “PubChem BioAssay data set” (2004).
Activity calls are given as the source filed them.

How the values were obtained:
[1] = biological target: Melanocortin receptor 4 (Homo sapiens, UniProt P32245); assay type: functional, cell-based;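 further: Cell-based assay with luminescence read-out, confirmatory dose-response testing for agonist activity of biased ligands at MC4R; human U2OS cells with tagged receptor and beta-arrestin; potency of agonists that increase receptor coupling to beta-arrestin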
Melanocortin receptor 4, sequence (P32245 whole entry): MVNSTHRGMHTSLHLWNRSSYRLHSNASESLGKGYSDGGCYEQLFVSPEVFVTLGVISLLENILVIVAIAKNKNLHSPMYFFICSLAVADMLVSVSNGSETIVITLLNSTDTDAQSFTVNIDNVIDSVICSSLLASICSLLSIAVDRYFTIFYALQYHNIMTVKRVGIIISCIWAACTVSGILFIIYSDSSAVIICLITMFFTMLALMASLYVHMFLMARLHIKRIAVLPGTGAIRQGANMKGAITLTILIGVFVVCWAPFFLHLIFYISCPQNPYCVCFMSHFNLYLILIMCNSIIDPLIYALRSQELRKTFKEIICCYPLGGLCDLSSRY

[2] = biological target: T1, Adenosylmethionine-8-amino-7-oxononanoate aminotransferase (Mycobacterium tuberculosis, UniProt P9WQ81); test: Mycobacterium tuberculosis BioA enzyme inhibitor Measured in Biochemical System Using Plate Reader - 2163-02_Inhibitor_Dose_CherryPick_Activity.; assay type: functional, Mycobacterium tuberculosis UT205
T1 sequence (P9WQ81 whole entry): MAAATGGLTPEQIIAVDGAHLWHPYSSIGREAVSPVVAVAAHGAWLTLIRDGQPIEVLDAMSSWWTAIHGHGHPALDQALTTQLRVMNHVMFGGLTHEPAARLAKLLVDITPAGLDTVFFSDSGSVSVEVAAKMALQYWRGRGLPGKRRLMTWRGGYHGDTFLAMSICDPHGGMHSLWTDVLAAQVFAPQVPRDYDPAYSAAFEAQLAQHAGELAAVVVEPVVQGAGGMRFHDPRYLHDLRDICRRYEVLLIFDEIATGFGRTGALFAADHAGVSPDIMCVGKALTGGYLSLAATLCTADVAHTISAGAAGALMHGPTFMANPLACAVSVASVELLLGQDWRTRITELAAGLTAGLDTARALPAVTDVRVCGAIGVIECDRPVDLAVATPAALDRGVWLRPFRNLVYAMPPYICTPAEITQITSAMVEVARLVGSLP

[3] = biological target: T2, Kappa-type opioid receptor (Homo sapiens, UniProt P41145); assay type: functional
T2 sequence (P41145 whole entry): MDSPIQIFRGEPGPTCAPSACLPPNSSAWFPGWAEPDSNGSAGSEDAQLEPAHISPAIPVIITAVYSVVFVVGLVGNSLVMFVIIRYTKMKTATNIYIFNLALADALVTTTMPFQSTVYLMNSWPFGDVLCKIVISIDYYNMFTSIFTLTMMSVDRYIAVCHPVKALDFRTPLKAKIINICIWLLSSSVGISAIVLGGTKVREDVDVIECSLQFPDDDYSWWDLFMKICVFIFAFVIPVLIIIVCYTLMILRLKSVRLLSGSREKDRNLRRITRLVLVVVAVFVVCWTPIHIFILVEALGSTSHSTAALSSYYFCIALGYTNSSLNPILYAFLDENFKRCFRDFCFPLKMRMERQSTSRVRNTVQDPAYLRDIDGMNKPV

[4] = biological target: Beta-galactosidase (Escherichia coli, UniProt Q8VNN2); assay type: functional
Beta-galactosidase, sequence (Q8VNN2 whole entry): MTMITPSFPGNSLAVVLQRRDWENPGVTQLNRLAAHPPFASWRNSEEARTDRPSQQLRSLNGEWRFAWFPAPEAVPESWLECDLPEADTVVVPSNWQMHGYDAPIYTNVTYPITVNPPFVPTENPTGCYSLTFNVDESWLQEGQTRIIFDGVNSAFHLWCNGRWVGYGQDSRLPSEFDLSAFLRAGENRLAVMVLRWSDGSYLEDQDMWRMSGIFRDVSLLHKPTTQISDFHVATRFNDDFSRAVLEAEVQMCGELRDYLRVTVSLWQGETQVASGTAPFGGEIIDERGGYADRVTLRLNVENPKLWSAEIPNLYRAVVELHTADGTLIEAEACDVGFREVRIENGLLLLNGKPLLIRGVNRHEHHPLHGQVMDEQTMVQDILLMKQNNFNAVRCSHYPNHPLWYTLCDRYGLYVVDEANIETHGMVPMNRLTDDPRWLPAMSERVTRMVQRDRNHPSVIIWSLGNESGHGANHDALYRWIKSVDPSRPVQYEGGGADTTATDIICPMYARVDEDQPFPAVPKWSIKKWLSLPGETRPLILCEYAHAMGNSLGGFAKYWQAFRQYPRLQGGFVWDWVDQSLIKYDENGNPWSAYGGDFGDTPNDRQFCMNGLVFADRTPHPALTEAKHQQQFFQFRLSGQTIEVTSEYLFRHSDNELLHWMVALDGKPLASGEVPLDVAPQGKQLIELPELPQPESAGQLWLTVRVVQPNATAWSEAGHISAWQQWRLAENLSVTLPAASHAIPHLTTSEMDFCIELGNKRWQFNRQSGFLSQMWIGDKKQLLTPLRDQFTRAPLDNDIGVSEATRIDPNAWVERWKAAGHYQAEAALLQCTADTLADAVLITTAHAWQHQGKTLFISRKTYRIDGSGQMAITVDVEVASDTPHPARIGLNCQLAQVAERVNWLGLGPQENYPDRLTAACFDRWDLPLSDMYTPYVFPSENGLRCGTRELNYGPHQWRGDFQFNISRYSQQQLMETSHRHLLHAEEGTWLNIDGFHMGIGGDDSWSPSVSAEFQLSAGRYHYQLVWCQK

[5] = biological target: T2, Kappa-type opioid receptor; assay type: functional; remark: listed apart in the source
[6] = reduced cellular PGC1a acetyl-lysine signal – cell-based, cherry-picked samples, dose response (AID 720514); assay type: functional;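 further: potency may reflect raised or lowered acetylation signal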
[7] = biological target: Potassium voltage-gated channel subfamily KQT member 2 (Rattus norvegicus, UniProt O88943); test: blockers of KCNQ2 channel current – cell-based, automated electrophysiology, set II, rat KCNQ2, dose response (AID 588637); assay type: functional
Potassium voltage-gated channel subfamily KQT member 2, sequence (O88943 whole entry): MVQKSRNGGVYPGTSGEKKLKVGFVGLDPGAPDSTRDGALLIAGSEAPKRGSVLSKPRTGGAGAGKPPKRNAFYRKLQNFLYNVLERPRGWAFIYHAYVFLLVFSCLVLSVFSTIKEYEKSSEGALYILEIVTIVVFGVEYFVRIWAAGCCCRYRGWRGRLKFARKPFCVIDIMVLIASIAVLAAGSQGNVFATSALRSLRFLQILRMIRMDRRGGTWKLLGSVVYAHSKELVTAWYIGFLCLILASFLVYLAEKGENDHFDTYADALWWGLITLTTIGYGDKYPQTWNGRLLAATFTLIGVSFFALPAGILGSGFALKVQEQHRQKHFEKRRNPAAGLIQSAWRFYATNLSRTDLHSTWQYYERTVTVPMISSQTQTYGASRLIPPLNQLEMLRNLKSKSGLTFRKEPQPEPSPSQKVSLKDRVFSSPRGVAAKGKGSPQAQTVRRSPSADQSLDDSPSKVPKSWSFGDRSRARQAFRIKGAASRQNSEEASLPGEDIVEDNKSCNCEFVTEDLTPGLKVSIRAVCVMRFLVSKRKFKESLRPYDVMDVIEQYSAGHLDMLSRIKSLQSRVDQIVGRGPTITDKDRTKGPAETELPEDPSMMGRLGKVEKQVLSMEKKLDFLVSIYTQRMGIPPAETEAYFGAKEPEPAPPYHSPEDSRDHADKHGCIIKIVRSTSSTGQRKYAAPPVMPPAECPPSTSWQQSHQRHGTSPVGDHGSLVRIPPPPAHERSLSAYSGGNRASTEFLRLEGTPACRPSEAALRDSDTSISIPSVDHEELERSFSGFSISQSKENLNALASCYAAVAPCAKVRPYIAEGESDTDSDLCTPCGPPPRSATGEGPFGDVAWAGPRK

[8] = biological target: Large T antigen (Simian virus 40, UniProt P03070); assay type: functional, Betapolyomavirus macacae;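 further: Confirmatory-stage PubChem screen for compounds that inhibit SV40 T antigen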
Large T antigen, sequence (P03070 whole entry): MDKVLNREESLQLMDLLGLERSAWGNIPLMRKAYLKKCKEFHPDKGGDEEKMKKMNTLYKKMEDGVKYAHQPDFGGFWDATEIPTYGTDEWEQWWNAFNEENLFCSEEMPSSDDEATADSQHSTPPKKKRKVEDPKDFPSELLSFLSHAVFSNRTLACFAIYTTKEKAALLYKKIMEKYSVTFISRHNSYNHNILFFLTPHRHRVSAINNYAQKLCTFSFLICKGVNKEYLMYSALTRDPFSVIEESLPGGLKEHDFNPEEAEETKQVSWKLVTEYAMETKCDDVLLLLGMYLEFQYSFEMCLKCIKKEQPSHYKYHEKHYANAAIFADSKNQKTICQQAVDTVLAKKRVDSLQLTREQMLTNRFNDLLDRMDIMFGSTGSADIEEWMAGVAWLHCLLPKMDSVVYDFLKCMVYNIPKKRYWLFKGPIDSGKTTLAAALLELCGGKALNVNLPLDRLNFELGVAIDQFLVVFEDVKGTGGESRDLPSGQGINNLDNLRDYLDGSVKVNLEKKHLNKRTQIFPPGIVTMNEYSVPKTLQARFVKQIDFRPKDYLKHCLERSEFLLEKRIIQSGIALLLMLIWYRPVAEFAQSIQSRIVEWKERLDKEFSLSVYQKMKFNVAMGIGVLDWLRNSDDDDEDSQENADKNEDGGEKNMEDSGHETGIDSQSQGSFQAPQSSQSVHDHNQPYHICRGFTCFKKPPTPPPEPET

[9] = biological target: DNA dC->dU-editing enzyme APOBEC-3G (Homo sapiens, UniProt Q9HC16); test: Dose Response confirmation of small molecule APOBEC3G DNA Deaminase Inhibitors via a fluorescence-based single-stranded DNA deaminase assay. [Related pubchem assays (depositor defined):AID493012, AID493028]; assay type: functional
DNA dC->dU-editing enzyme APOBEC-3G, sequence (Q9HC16 whole entry): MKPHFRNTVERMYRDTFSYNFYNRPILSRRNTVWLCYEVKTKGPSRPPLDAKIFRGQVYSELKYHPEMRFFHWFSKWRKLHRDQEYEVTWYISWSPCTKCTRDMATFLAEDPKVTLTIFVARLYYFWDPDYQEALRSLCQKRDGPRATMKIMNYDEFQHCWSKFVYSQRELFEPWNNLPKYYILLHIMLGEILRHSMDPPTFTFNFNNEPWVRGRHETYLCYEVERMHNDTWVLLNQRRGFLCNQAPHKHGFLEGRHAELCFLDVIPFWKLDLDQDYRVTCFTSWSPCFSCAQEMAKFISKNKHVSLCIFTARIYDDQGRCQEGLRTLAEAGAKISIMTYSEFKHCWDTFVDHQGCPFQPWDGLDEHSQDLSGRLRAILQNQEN

[10] = biological target: T3, Heat shock factor protein 1 (Mus musculus, UniProt P38532); test: enhancement of HSF1-driven luciferase signal – cell-based, NIH3T3, luminescence, dose retest, confirmation (AID 435004); assay type: functional;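 further: stress induced by proteasome inhibitor MG132 added 30 min after compound; luciferase reporter driven by HSF1 response element in NIH3T3 cells; actives raise luminescence as potentiators of the MG132 stress response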
T3 sequence (P38532 whole entry): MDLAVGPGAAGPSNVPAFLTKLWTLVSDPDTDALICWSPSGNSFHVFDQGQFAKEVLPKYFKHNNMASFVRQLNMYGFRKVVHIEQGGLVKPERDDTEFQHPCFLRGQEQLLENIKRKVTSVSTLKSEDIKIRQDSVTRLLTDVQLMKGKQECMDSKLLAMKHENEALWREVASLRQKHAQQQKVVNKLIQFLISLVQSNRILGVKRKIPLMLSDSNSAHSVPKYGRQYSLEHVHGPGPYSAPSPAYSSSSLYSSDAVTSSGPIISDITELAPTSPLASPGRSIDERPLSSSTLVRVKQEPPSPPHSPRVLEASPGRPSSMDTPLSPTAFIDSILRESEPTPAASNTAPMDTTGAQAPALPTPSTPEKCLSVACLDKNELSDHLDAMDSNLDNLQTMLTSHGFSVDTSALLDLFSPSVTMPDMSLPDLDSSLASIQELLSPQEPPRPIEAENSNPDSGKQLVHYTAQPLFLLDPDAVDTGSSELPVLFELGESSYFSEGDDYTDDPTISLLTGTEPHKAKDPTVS

## N#C/C(=C\c1cn(CCOc2ccccc2)c2ccccc12)C(=O)NCc1ccco1
[1]
  EC50: > 89.2 µM (inactive)

## CC(=O)c1ccc(C(=O)N2CCCC(Nc3ccccc3)C2)s1 (configuration not stated)
[2]
  AC50: 5.18 µM (active)

## COc1ccc(-n2nc(C#N)c(Cl)cc2=O)cc1
[3]
  IC50: 7.21 µM (active)
[4]
  EC50: > 31.5 µM (inactive)
[5]
  IC50: 14 µM
[6]
  AC50: 3.52 µM (active)

## CC(=O)Nc1cc(-c2cccc(NS(C)(=O)=O)c2)cn2c(-c3ccccc3)cnc12
[1]
  EC50: > 89.2 µM (inactive)

## CCSc1nnc(NC(=O)c2csc3c2CCCC3)s1
[1]
  EC50: > 89.2 µM (inactive)

## Cn1c(C(=O)N2CCc3ccccc3C2)cc2oc3ccccc3c21
[7]
  IC50: 6.99 µM (active)

## CSS(=O)(=O)c1cccc2cccnc12
[8]
  IC50: 65.2 µM (active)
[9]
  IC50: 9.66 µM (active)
[10]
  EC50: 19.1 µM (active)
